Reference: patent US11000033B2, “Ketone or oxime compound, and herbicide” (NISSAN CHEMICAL CORPORATION, priority 2014, dated 2021)

Columns and labels:
Format in all cases: in vivo
Alopecurus myosuroides = experiment: Test Example 5: herbicidal effect by foliage application, plastic box (symbol J); details: 320 g/ha, 3 weeks after application
Outline: (§1)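 Effect is rated 3 weeks after a foliar spray of water-diluted emulsion concentrate at a predetermined herbicide amount. Plants had grown 14 days in a 25° C. to 30° C. greenhouse from seed in sterilized diluvial soil.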

[1] = system: Echinochloa crus-galli var. crus-galli; experiment: Test Example 5: herbicidal effect by foliage application, plastic box (symbol H); details: 320 g/ha, 3 weeks after application
Outline: as §1

corn [2] = experiment: Test Example 5: effect on crop by foliage application, plastic box (symbol c); details: 320 g/ha, 3 weeks after application
Outline: (§2)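 A greenhouse held between 25° C. and 30° C. was used to grow plants sown spot-wise, beneath ~1.5 cm of soil, in boxes of sterilized diluvial soil.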

corn [3] = experiment: Test Example 4: effect on crop by soil treatment (symbol c); details: 320 g/ha
Outline: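 Grown at 25° C. to 30° C. in a greenhouse, the crops came from seed sown spot-wise in sterilized diluvial soil under roughly 1.5 cm of covering soil.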

rapeseed = experiment: Test Example 4: effect on crop by soil treatment (symbol g); details: 320 g/ha
Outline: (§3)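 Steps: fill box with sterilized diluvial soil; sow seed spot-like; cover with ~1.5 cm soil; grow in greenhouse (25° C. to 30° C.).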

Leptochloa chinensis = experiment: Test Example 3: herbicidal effect by foliage application, Wagner pot (symbol D); details: application herbicide amount 320 g/ha
Outline: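 Seeds sown in alluvial soil kept under 0.1–0.5 cm water, greenhouse 25–30 °C; 14 d growth. Leaves treated by small sprayer with water-diluted emulsion at a predetermined rate. Effect graded by set scale, 3 weeks.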

Digitaria ciliaris = experiment: Test Example 4: herbicidal effect by soil treatment (symbol F); details: 320 g/ha
Outline: (§4)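 Seeds were sown in sterilized diluvial soil, covered with about 1.5 cm of soil, and the soil surface was sprayed with a water-diluted emulsion of the compound at a predetermined rate. Plants grew in a greenhouse at 25° C. to 30° C.; effects were scored visually 3 weeks after application.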

soybean = experiment: Test Example 5: effect on crop by foliage application, plastic box (symbol d); details: 320 g/ha, 3 weeks after application
Outline: as §2

Avena fatua = experiment: Test Example 4: herbicidal effect by soil treatment (symbol I); details: 320 g/ha
Outline: as §4

rice = experiment: Test Example 4: effect on crop by soil treatment (symbol b); details: 320 g/ha
Outline: as §3

Monochoria vaginalis = experiment: Test Example 2: herbicidal activity, application during weed generation in submerged conditions (symbol C); details: Table 23; application herbicide amount 320 g/ha; grade 0-5 by criteria of Test Example 1
Outline: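 Each pot contained alluvial soil under 4 cm of water with seeds of all three weeds sown together. Following growth at 25° C. to 30° C. to the one- to two-leaf stage, the floodwater received diluted emulsion at a predetermined amount; visual assessment followed at 3 weeks.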

SMILES | J: Alopecurus myosuroides, herbicidal effect (criteria 0-5) (Alopecurus myosuroides) | H: Echinochloa crus-galli var. crus-galli, herbicidal effect (criteria 0-5) [1] | c: corn, effect on crop (criteria 0-5) (corn [2]) | c: corn, effect grade on crop (corn [3]) | g: rapeseed, effect grade on crop (rapeseed) | herbicidal effect on D (Leptochloa chinensis), grade 0-5 (Leptochloa chinensis) | F: Digitaria ciliaris, herbicidal effect grade (Digitaria ciliaris) | d: soybean, effect on crop (criteria 0-5) (soybean) | I: Avena fatua, herbicidal effect grade (Avena fatua) | b: directly sowed rice plant, effect grade on crop (rice) | Herbicidal effect grade, C: Monochoria vaginalis (Monochoria vaginalis)
CON=C(C)CON=C(C)CC1CC(O)=C(c2c(C)cc(C)cc2C)C1=O (centres unmarked) [1-105] | 5 (Herbicidal ratio of 90% or more (almost completely withered)) | 5 (Herbicidal ratio of 90% or more (almost completely withered)) | 4 (Herbicidal ratio of 70% or higher and lower than 90%) | 1 (Herbicidal ratio of 5% or higher and lower than 20%) | 3 (Herbicidal ratio of 40% or higher and lower than 70%) | 5 (Herbicidal ratio of 90% or more (almost completely withered)) | 5 (Herbicidal ratio of 90% or more (almost completely withered)) | 1 (Herbicidal ratio of 5% or higher and lower than 20%) | 1 (Herbicidal ratio of 5% or higher and lower than 20%) | 5 (Herbicidal ratio of 90% or more (almost completely withered)) | 3 (Herbicidal ratio of 40% or higher and lower than 70%)
CC(CC1CC(O)=C(c2c(C)cc(C)cc2C)C1=O)=NOC1CCCC1 (centres unmarked) [1-106] | 5 (Herbicidal ratio of 90% or more (almost completely withered)) | 5 (Herbicidal ratio of 90% or more (almost completely withered)) | 5 (Herbicidal ratio of 90% or more (almost completely withered)) | 1 (Herbicidal ratio of 5% or higher and lower than 20%) | 3 (Herbicidal ratio of 40% or higher and lower than 70%) | 5 (Herbicidal ratio of 90% or more (almost completely withered)) | 5 (Herbicidal ratio of 90% or more (almost completely withered)) | 0 (Herbicidal ratio of 5% or lower (almost no effect)) | 3 (Herbicidal ratio of 40% or higher and lower than 70%) | 5 (Herbicidal ratio of 90% or more (almost completely withered)) | 0 (Herbicidal ratio of 5% or lower (almost no effect))
CCCCCCCCS(=O)(=O)OC1=C(c2c(C)cc(C)cc2C)C(=O)C(CC(C)=NOC)C1 (centres unmarked) [1-107] | 5 (Herbicidal ratio of 90% or more (almost completely withered)) | 5 (Herbicidal ratio of 90% or more (almost completely withered)) | 2 (Herbicidal ratio of 20% or higher and lower than 40%) | 0 (Herbicidal ratio of 5% or lower (almost no effect)) | 2 (Herbicidal ratio of 20% or higher and lower than 40%) | 5 (Herbicidal ratio of 90% or more (almost completely withered)) | 5 (Herbicidal ratio of 90% or more (almost completely withered)) | 3 (Herbicidal ratio of 40% or higher and lower than 70%) | 0 (Herbicidal ratio of 5% or lower (almost no effect)) | 5 (Herbicidal ratio of 90% or more (almost completely withered)) | 0 (Herbicidal ratio of 5% or lower (almost no effect))
CON=C(C)CC1CC(OC(=O)N(C)C)=C(c2c(C)cc(C)cc2C)C1=O (centres unmarked) [1-108] | 5 (Herbicidal ratio of 90% or more (almost completely withered)) | 5 (Herbicidal ratio of 90% or more (almost completely withered)) | 5 (Herbicidal ratio of 90% or more (almost completely withered)) | 5 (Herbicidal ratio of 90% or more (almost completely withered)) | 4 (Herbicidal ratio of 70% or higher and lower than 90%) | 5 (Herbicidal ratio of 90% or more (almost completely withered)) | 5 (Herbicidal ratio of 90% or more (almost completely withered)) | 3 (Herbicidal ratio of 40% or higher and lower than 70%) | 3 (Herbicidal ratio of 40% or higher and lower than 70%) | 5 (Herbicidal ratio of 90% or more (almost completely withered)) | 1 (Herbicidal ratio of 5% or higher and lower than 20%)
CC(CC1CC(O)=C(c2c(C)cc(C)cc2C)C1=O)=NOCC1CC1(F)F (centres unmarked) [1-109] | 5 (Herbicidal ratio of 90% or more (almost completely withered)) | 5 (Herbicidal ratio of 90% or more (almost completely withered)) | 5 (Herbicidal ratio of 90% or more (almost completely withered)) | 1 (Herbicidal ratio of 5% or higher and lower than 20%) | 4 (Herbicidal ratio of 70% or higher and lower than 90%) | 5 (Herbicidal ratio of 90% or more (almost completely withered)) | 5 (Herbicidal ratio of 90% or more (almost completely withered)) | 0 (Herbicidal ratio of 5% or lower (almost no effect)) | 2 (Herbicidal ratio of 20% or higher and lower than 40%) | 5 (Herbicidal ratio of 90% or more (almost completely withered)) | 2 (Herbicidal ratio of 20% or higher and lower than 40%)
CC(CC1CC(O)=C(c2c(C)cc(C)cc2C)C1=O)=NOCCS(C)(=O)=O (centres unmarked) [1-110] | 5 (Herbicidal ratio of 90% or more (almost completely withered)) | 5 (Herbicidal ratio of 90% or more (almost completely withered)) | 5 (Herbicidal ratio of 90% or more (almost completely withered)) | 4 (Herbicidal ratio of 70% or higher and lower than 90%) | 1 (Herbicidal ratio of 5% or higher and lower than 20%) | 5 (Herbicidal ratio of 90% or more (almost completely withered)) | 5 (Herbicidal ratio of 90% or more (almost completely withered)) | 0 (Herbicidal ratio of 5% or lower (almost no effect)) | 4 (Herbicidal ratio of 70% or higher and lower than 90%) | 5 (Herbicidal ratio of 90% or more (almost completely withered)) | 0 (Herbicidal ratio of 5% or lower (almost no effect))
CC(CC1CC(O)=C(c2c(C)cc(C)cc2C)C1=O)=NOCC1OCCO1 (centres unmarked) [1-111] | 5 (Herbicidal ratio of 90% or more (almost completely withered)) | 5 (Herbicidal ratio of 90% or more (almost completely withered)) | 5 (Herbicidal ratio of 90% or more (almost completely withered)) | 1 (Herbicidal ratio of 5% or higher and lower than 20%) | 4 (Herbicidal ratio of 70% or higher and lower than 90%) | 5 (Herbicidal ratio of 90% or more (almost completely withered)) | 5 (Herbicidal ratio of 90% or more (almost completely withered)) | 3 (Herbicidal ratio of 40% or higher and lower than 70%) | 3 (Herbicidal ratio of 40% or higher and lower than 70%) | 5 (Herbicidal ratio of 90% or more (almost completely withered)) | 0 (Herbicidal ratio of 5% or lower (almost no effect))
